Source: ChEMBL document CHEMBL5518178 (Eur J Med Chem, 2024)
Active and inactive are the calls of the source. The rule behind the calls is not given here.

Legend:
HCT-116 = experiment: Antiproliferative activity against human HCT-116 cells assessed as inhibition of cell growth incubated for 48 hrs by MTT assay; format: functional, cell-based; conditions: HCT-116, 48 h
KYSE-30 = experiment: Antiproliferative activity against human KYSE-30 cells assessed as inhibition of cell growth incubated for 48 hrs by MTT assay; format: functional, cell-based; conditions: KYSE-30, 48 h
MGC-803 [1] = experiment: Antiproliferative activity against human MGC-803 cells assessed as reduction in cell viability incubated for 12 to 48 hrs by MTT assay; format: functional, cell-based; conditions: dose 20-80 µM, time 12-48 hrs
MGC-803 [2] = experiment: Antiproliferative activity against human MGC-803 cells assessed as reduction in cell viability at 20 to 80 nmol/L by MTT assay; format: functional, cell-based; conditions: dose 20-80 nmol/L, time 12-48 hrs, TDE = time-dependent effect
MGC-803 [3] = experiment: Antiproliferative activity against human MGC-803 cells assessed as increase in nuclear concentration at 10 to 40 nmol/L incubated for 48 hrs by DAPI staining based fluorescence microscopic analysis; format: functional, cell-based; conditions: dose 10-40 nmol/L
MGC-803 [4] = experiment: Antiproliferative activity against human MGC-803 cells assessed as decrease in cell density at 10 to 40 nmol/L incubated for 48 hrs by bright field microscopic analysis; format: functional, cell-based; conditions: dose 10-40 nmol/L
MGC-803 [5] = experiment: Antiproliferative activity against human MGC-803 cells assessed as decrease in cell damage at 10 to 40 nmol/L incubated for 48 hrs by bright field microscopic analysis; format: functional, cell-based; conditions: dose 10-40 nmol/L
MGC-803 [6] = experiment: Antiproliferative activity against human MGC-803 cells assessed as increase in proportion of dead cells at 10 to 40 nmol/L incubated for 48 hrs by Calcein-AM/propidium iodide staining based fluorescence microscopic analysis; format: functional, cell-based; conditions: dose 10-40 nmol/L
Tubulin (Homo sapiens) = Tubulin (Homo sapiens) (UniProt P68371+Q9H4B7+P0DPH7+P68366+Q13509+Q71U36+P04350+Q3ZCM7+P07437+P68363+Q9BQE3+Q6PEY2+Q13885+Q9BVA1+Q9BUF5); experiment: Inhibition of tubulin polymerization (unknown origin) at 3 uM by fluorescence plate reader analysis; format: protein-complex assay
MGC-803 [7] = experiment: Induction of cell cycle arrest in human MGC-803 cells at M phase assessed as increase in p-Histone H3 level at 10 to 40 nmol/L incubated for 48 hrs by Western blotting; format: functional, cell-based; conditions: dose 10-40 nmol/L
MGC-803 [8] = experiment: Induction of apoptosis in human MGC-803 cells assessed as viable cells at 10 nmol/L incubated for 48 hrs by Annexin V-FITC/propidium iodide staining based flow cytometer analysis (reference value: 93.08 %); format: functional; conditions: read-out: Activity
MGC-803 [9] = experiment: Induction of apoptosis in human MGC-803 cells assessed as early apoptotic cells at 10 nmol/L incubated for 48 hrs by Annexin V-FITC/propidium iodide staining based flow cytometer analysis (reference value: 4.38 %); format: functional
MGC-803 [10] = experiment: Induction of apoptosis in human MGC-803 cells assessed as late apoptotic cells at 10 nmol/L incubated for 48 hrs by Annexin V-FITC/propidium iodide staining based flow cytometer analysis (reference value: 2.22 %); format: functional
MGC-803 [11] = experiment: Induction of apoptosis in human MGC-803 cells assessed as necrotic cells at 10 nmol/L incubated for 48 hrs by Annexin V-FITC/propidium iodide staining based flow cytometer analysis (reference value: 0.32 %); format: functional
MGC-803 [12] = experiment: Induction of apoptosis in human MGC-803 cells assessed as viable cells at 20 nmol/L incubated for 48 hrs by Annexin V-FITC/propidium iodide staining based flow cytometer analysis (reference value: 93.08 %); format: functional; conditions: read-out: Activity
MGC-803 [13] = experiment: Induction of apoptosis in human MGC-803 cells assessed as early apoptotic cells at 20 nmol/L incubated for 48 hrs by Annexin V-FITC/propidium iodide staining based flow cytometer analysis (reference value: 4.38 %); format: functional
MGC-803 [14] = experiment: Induction of apoptosis in human MGC-803 cells assessed as necrotic cells at 20 nmol/L incubated for 48 hrs by Annexin V-FITC/propidium iodide staining based flow cytometer analysis (reference value: 0.32 %); format: functional
MGC-803 [15] = experiment: Induction of apoptosis in human MGC-803 cells assessed as viable cells at 40 nmol/L incubated for 48 hrs by Annexin V-FITC/propidium iodide staining based flow cytometer analysis (reference value: 93.08 %); format: functional; conditions: read-out: Activity
MGC-803 [16] = experiment: Induction of apoptosis in human MGC-803 cells assessed as early apoptotic cells at 40 nmol/L incubated for 48 hrs by Annexin V-FITC/propidium iodide staining based flow cytometer analysis (reference value: 4.38 %); format: functional
MGC-803 [17] = experiment: Induction of apoptosis in human MGC-803 cells assessed as late apoptotic cells at 40 nmol/L incubated for 48 hrs by Annexin V-FITC/propidium iodide staining based flow cytometer analysis (reference value: 2.22 %); format: functional
MGC-803 [18] = experiment: Induction of apoptosis in human MGC-803 cells assessed as necrotic cells at 40 nmol/L incubated for 48 hrs by Annexin V-FITC/propidium iodide staining based flow cytometer analysis (reference value: 0.32 %); format: functional
MGC-803 [19] = experiment: Induction of apoptosis in human MGC-803 cells assessed as decrease in Bcl-xL protein level at 10 to 40 nmol/L incubated for 48 hrs by Western blotting; format: functional, cell-based; conditions: dose 10-40 nmol/L
MGC-803 [20] = experiment: Induction of apoptosis in human MGC-803 cells assessed as caspase-7 cleavage at 10 to 40 nmol/L incubated for 48 hrs by Western blotting; format: functional, cell-based; conditions: dose 10-40 nmol/L
MGC-803 [21] = experiment: Induction of apoptosis in human MGC-803 cells assessed as caspase-9 cleavage at 10 to 40 nmol/L incubated for 48 hrs by Western blotting; format: functional, cell-based; conditions: dose 10-40 nmol/L
MGC-803 [22] = experiment: Anti-migratory activity against human MGC-803 cells assessed as inhibition of cell migration at lower concentration measured for 48 hrs by wound healing assay; format: functional, cell-based
MGC-803 [23] = experiment: Anti-migratory activity against human MGC-803 cells assessed as inhibition of cell migration at 10 to 30 nmol/L measured for 48 hrs by crystal-violet staining based transwell migration assay; format: functional; conditions: dose 10-30 nmol/L
MGC-803 [24] = experiment: Anti-migratory activity against human MGC-803 cells assessed as decrease in MMP-2 level at 10 to 40 nmol/L by Western blotting; format: functional, cell-based; conditions: dose 10-40 nmol/L
MGC-803 [25] = experiment: Anti-migratory activity against human MGC-803 cells assessed as decrease in MMP-9 level at 10 to 40 nmol/L by Western blotting; format: functional, cell-based; conditions: dose 10-40 nmol/L
MGC-803 [26] = experiment: Antitumor activity against human MGC-803 cells xenografted in BALB/c-nude mouse assessed as tumor growth rate at 30 mg/kg/day, ip administered for 18 days relative to control; format: functional; conditions: time 18 day
[27] = Toxicity in BALB/c-nude mouse xenografted with human MGC-803 cells assessed as change in body weight at 30 mg/kg/day, ip administered for 18 days; format: organism-based; conditions: in vivo, 432 h, time 18 day
[28] = Toxicity in BALB/c-nude mouse xenografted with human MGC-803 cells assessed as alteration in heart tissue at 30 mg/kg/day, ip administered for 18 days by hematoxylin and eosin staining based analysis; format: organism-based; conditions: in vivo, 432 h, time 18 day
[29] = Toxicity in BALB/c-nude mouse xenografted with human MGC-803 cells assessed as alteration in lung tissue at 30 mg/kg/day, ip administered for 18 days by hematoxylin and eosin staining based analysis; format: organism-based; conditions: in vivo, 432 h, time 18 day
[30] = Toxicity in BALB/c-nude mouse xenografted with human MGC-803 cells assessed as alteration in kidney tissue at 30 mg/kg/day, ip administered for 18 days by hematoxylin and eosin staining based analysis; format: organism-based; conditions: in vivo, 432 h, time 18 day

- IC50 (HCT-116): 81 nM
- inhibition (Tubulin (Homo sapiens)): Active
SMILES: COc1ccc2c(c1)CCCN2c1cc(=O)oc2ccccc12
- IC50 (KYSE-30): 190 nM
- Activity (MGC-803 [1]): Dose-Dependent Effect
- Activity (MGC-803 [2]): Tde
- Activity (MGC-803 [3]): Active
- Activity (MGC-803 [4]): Active
- Activity (MGC-803 [5]): Active
- Activity (MGC-803 [6]): Active
- Activity (MGC-803 [7]): Active
- viability at 0.01 µM (MGC-803 [8]): 92.2%
- Activity (MGC-803 [9]): 4.68%
- Activity (MGC-803 [10]): 2.8%
- Activity (MGC-803 [11]): 0.34%
- viability at 0.02 µM (MGC-803 [12]): 88%
- Activity (MGC-803 [13]): 9.14%
- Activity (MGC-803 [14]): 0.12%
- viability at 0.04 µM (MGC-803 [15]): 39.1%
- Activity (MGC-803 [16]): 41.97%
- Activity (MGC-803 [17]): 17.65%
- Activity (MGC-803 [18]): 1.3%
- Activity (MGC-803 [19]): Active
- Activity (MGC-803 [20]): Active
- Activity (MGC-803 [21]): Active
- Activity (MGC-803 [22]): Active
- Activity (MGC-803 [23]): Active
- Activity (MGC-803 [24]): Active
- Activity (MGC-803 [25]): Active
- Activity (MGC-803 [26]): 25%
- Activity [27]: Non-Toxic
- Activity [28]: Non-Toxic
- Activity [29]: Non-Toxic
- Activity [30]: Non-Toxic
